Data published in US11945822B2, “Pyrazolo-triazine and/or pyrazolo-pxrimidine derivatives as selective inhibitor of cyclin dependent kinase” (QURIENT CO., LTD., priority 2018, dated 2024).
Like-named read-outs stand apart in the source and are kept apart here.

Key:
CDK2/Cyclin A = target: T1, CDK2/Cyclin A (Homo sapiens, UniProt P24941); experiment: Enzymatic assay for CDK2 (FRET based LANCE Ultra kinase assay); assay type: biochemical
T1 construct: purchased Invitrogen PV6290
Protocol: (§1) Enzymatic Binding Assay Protocol for CDK1, CDK2, CDK5 and CDK7
(§2) Inhibition activity of the respective compound on CDK kinase under Km value of ATP was tested in FRET based The LANCE® Ultra kinase assay (Perkin Elmer), which uses a ULight™-labeled peptide substrate and an appropriate Europium-labeled anti-phospho-antibody. Test compounds were made with DMSO solutions, and then 4-fold serial dilutions for 8 doses were prepared using automated liquid handler (POD810, LABCYTE) and 80 nL/well of diluted compound solutions were added into the 384-well plates (Greiner, Cat #784075). And then 68 nM of ULight-MBP peptide (Perkin Elmer, Cat #TRF0109-M) and 5 ul/well of ATP (Sigma, Cat #A7699) were added to the plate. After 1 min centrifugation at 1000 rpm, Purified CDKs/Cyclin complex were added following concentrations respectively. 24 uM for CDK1/Cyclin B (Invitrogen, Cat #PR4768C), 22 uM for CDK2/Cyclin A (Invitrogen, Cat #PV6290), 10 uM for CDK5/p25 (Invitrogen, Cat #PR8543B) and […] for CDK7/Cyclin H/MNAT1 (Invitrogen, Cat #PR6749B) were added to the each corresponding plate for CDK1, CDK2, CDK5 and CDK7. Incubate at 23° C. for 60 min and then Eu-labeled anti-phospho-Myelin Basic Protein (PE, Cat #TRF0201-M) and EDTA (Invitrogen, Cat #15575038) mixture in Lance Detection Buffer (Perkin Elmer, Cat #CR97100) was added in each well. After additional incubation at 23° C. for 60 min, test articles were measured the fluorescence using Envision leader (Perkin Elmer, USA) [Laser as excitation light; […] as the first and the second emission filter]. Data was analyzed using XL Fit software.

CDK1/Cyclin B = target: T2, CDK1/Cyclin B (Homo sapiens, UniProt P06493); experiment: Enzymatic assay for CDK1 (FRET based LANCE Ultra kinase assay); assay type: biochemical
T2 construct: purchased Invitrogen PR4768C
T2 sequence (P06493 whole entry): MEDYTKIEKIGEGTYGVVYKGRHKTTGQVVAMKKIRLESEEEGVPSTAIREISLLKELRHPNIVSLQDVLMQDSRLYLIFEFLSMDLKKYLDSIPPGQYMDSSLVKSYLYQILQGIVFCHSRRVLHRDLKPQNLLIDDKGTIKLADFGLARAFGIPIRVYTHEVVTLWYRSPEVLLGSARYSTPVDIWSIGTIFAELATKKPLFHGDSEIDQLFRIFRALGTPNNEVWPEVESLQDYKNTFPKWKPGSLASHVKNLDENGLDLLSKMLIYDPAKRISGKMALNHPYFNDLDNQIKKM
T2 sequence (P14635 whole entry partner): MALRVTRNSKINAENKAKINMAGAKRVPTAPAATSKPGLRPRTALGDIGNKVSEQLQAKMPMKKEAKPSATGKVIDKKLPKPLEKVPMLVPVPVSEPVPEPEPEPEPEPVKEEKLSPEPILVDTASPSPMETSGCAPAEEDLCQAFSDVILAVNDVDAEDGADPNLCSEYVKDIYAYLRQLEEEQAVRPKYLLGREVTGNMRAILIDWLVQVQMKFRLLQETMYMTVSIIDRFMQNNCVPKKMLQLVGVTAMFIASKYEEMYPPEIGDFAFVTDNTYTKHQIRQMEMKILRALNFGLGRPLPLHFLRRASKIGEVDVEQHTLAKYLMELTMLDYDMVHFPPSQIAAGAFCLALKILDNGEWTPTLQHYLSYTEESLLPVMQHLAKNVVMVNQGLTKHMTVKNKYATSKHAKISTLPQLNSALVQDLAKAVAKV
Protocol: as §1, §2

CDK5/p25 = target: T3, CDK5/p25 (Homo sapiens, UniProt Q00535); experiment: Enzymatic assay for CDK5 (FRET based LANCE Ultra kinase assay); assay type: biochemical
T3 construct: purchased Invitrogen PR8543B
T3 sequence (Q00535 whole entry): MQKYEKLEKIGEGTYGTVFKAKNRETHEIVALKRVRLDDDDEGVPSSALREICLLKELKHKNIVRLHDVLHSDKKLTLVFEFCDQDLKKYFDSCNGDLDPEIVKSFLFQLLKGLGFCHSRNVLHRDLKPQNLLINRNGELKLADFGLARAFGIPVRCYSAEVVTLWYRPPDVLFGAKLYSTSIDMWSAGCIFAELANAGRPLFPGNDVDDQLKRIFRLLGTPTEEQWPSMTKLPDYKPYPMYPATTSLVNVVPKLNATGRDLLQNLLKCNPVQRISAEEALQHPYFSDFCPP
T3 sequence (Q15078 99-307 partner limits assumed): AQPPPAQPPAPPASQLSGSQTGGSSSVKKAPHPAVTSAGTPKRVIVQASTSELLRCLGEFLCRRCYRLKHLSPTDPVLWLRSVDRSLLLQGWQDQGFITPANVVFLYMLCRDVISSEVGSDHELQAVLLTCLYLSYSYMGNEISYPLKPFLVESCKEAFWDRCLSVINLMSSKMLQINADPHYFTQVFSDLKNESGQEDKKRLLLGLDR
Protocol: as §1, §2

H460 = experiment: Cellular H460 viability assay (CellTiter-Glo, 72 hours); assay type: cell-based; settings: Homo sapiens, NCI-H460
Protocol: All cell lines were routinely tested for mycoplasma.
The effect of the CDK7 inhibitor to inhibit the growth of target cancer cells was evaluated through the 72 hours time period of viability assay. Briefly, the candidate cell line ware plated in 96 well plate at the following density of cells respectively. […] DMSO solvent without compound served as a control and final DMSO concentration less than 0.1%. After 72 hours of incubation at 37° C., 5% CO2 incubator, cells were analyzed for the viability using the CellTiter-Glo Luminescent Cell Viability Assay (Promega, Cat #G7570). All viability assays were performed in duplicate and Luminescence was read using an Envision (Perkin Elmer, USA). Data was analyzed using XLfit software.

CDK7/Cyclin H/MNAT1 = target: T4, CDK7/Cyclin H/MNAT1 (Homo sapiens, UniProt P50613); experiment: Enzymatic assay for CDK7 (FRET based LANCE Ultra kinase assay); assay type: biochemical
T4 construct: purchased Invitrogen PR6749B
T4 sequence (P50613 whole entry): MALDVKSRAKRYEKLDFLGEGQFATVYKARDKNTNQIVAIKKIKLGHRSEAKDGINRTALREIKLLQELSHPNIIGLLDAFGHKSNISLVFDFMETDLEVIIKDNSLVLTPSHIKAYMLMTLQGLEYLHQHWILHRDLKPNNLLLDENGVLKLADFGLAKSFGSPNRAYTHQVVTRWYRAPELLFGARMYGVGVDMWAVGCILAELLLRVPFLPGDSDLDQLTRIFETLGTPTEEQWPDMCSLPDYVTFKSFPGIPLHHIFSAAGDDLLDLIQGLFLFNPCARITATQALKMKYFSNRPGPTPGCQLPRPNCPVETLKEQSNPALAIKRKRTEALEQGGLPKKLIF
T4 sequence (P51946 whole entry partner): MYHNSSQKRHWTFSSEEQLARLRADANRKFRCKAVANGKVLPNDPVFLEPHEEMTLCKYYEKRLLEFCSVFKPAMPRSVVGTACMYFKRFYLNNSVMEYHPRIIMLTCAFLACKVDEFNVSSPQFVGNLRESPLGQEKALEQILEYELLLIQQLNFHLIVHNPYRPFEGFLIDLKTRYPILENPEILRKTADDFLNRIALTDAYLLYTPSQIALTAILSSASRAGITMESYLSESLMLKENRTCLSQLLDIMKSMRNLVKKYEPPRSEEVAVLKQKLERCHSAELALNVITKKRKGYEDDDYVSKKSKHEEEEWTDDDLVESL
T4 sequence (P51948 whole entry partner): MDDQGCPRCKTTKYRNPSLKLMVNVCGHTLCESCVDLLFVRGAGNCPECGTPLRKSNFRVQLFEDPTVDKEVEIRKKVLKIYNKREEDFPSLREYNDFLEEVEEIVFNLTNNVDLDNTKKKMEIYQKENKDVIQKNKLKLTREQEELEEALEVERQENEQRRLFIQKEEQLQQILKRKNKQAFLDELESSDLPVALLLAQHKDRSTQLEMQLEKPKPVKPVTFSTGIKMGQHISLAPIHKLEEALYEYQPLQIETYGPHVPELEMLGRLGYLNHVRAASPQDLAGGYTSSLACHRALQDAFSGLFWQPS
Protocol: as §1
Inhibition activity of the respective compound on CDK kinase under Km value of ATP was tested in FRET based The LANCE® Ultra kinase assay (Perkin Elmer), which uses a ULight™-labeled peptide substrate and an appropriate Europium-labeled anti-phospho-antibody. […] After 1 min centrifugation at 1000 rpm, Purified CDKs/Cyclin complex were added following concentrations respectively. […] Data was analyzed using XL Fit software.

[1] = read-out: CDK2 enzymatic activity (IC50 range)
[2] = read-out: CDK1 enzymatic activity (IC50 range)
[3] = read-out: CDK5 enzymatic activity (IC50 range)
[4] = read-out: CDK7 enzymatic activity (IC50 range)

Row | SMILES | IC50 (CDK2/Cyclin A; [1]) | IC50 (CDK1/Cyclin B; [2]) | IC50 (CDK5/p25; [3]) | IC50 (H460) | CDK5/CDK7: Selectivity of CDK7 inhibition over CDK5 inhibition (CDK7/Cyclin H/MNAT1; CDK7 over CDK5) | IC50 (CDK7/Cyclin H/MNAT1; [4]) | IC50 (CDK2/Cyclin A; read-out: CDK2 enzymatic activity (IC50 activity range)) | IC50 (CDK1/Cyclin B; read-out: CDK1 enzymatic activity (IC50 activity range)) | IC50 (CDK5/p25; read-out: CDK5 enzymatic activity (IC50 activity range)) | CDK1/CDK7: Selectivity of CDK7 inhibition over CDK1 inhibition (CDK7/Cyclin H/MNAT1; CDK1/CDK7) | CDK2/CDK7: Selectivity of CDK7 inhibition over CDK2 inhibition (CDK7/Cyclin H/MNAT1; CDK2/CDK7) | CDK5/CDK7: Selectivity of CDK7 inhibition over CDK5 inhibition (CDK7/Cyclin H/MNAT1; CDK5/CDK7) | IC50 (CDK7/Cyclin H/MNAT1; read-out: CDK7 enzymatic activity (IC50 activity range)) | CDK1/CDK7: Selectivity of CDK7 inhibition over CDK1 inhibition (CDK7/Cyclin H/MNAT1; CDK7 over CDK1) | CDK2/CDK7: Selectivity of CDK7 inhibition over CDK2 inhibition (CDK7/Cyclin H/MNAT1; CDK7 over CDK2)
1 | CC(C)c1cnn2c(NCc3ccccc3-n3cccn3)nc(C(=O)NC3CCNC3)nc12 (racemic) [Compound 8] | > 1000 nM | > 1000 nM | > 1000 nM | > 10000 nM | C (C=less than 20 fold) | 100 to 1000 nM |  |  |  |  |  |  |  | B (B=less than 200 fold, but greater than 20 fold) | B (B=less than 200 fold, but greater than 20 fold)
2 | CC(C)c1cnn2c(NCc3ccccc3-n3cccn3)nc(C(=O)N3CCN(C)CC3)nc12 [Compound 7] |  |  |  | > 10000 nM |  |  |  |  |  |  |  |  |  |  | 
3 | CCCNC(=O)Nc1ccccc1CNc1nc(N2CCC(N)CC2)nc2c(C(C)C)cnn12 [Compound 11] | 100 to 1000 nM | > 1000 nM | 100 to 1000 nM | < 1000 nM | B (B=less than 200 fold, but greater than 20 fold) | < 100 nM |  |  |  |  |  |  |  | A (A=greater than 200 fold) | B (B=less than 200 fold, but greater than 20 fold)
4 | CNC(=O)c1cccnc1CNc1nc(N2CCC(N)CC2)nc2c(C(C)(C)C)cnn12 [Compound 15] | > 1000 nM | > 1000 nM | > 1000 nM |  | B (B=less than 200 fold, but greater than 20 fold) | < 100 nM |  |  |  |  |  |  |  | A (A=greater than 200 fold) | A (A=greater than 200 fold)
5 | CC(C)c1cnn2c(NCc3c[nH]c4ccccc34)nc(N3CCC(N)CC3)nc12 [Compound 28] | 100 to 1000 nM | > 1000 nM | 100 to 1000 nM |  | C (C=less than 20 fold) | < 100 nM |  |  |  |  |  |  |  | B (B=less than 200 fold, but greater than 20 fold) | B (B=less than 200 fold, but greater than 20 fold)
6 | NC1CCN(c2nc(NCc3ccccc3-n3cccn3)n3ncc(Cl)c3n2)CC1 [Compound 29] |  |  |  | 1000 to 10000 nM |  |  |  |  |  |  |  |  |  |  | 
7 | N#Cc1cnn2c(NCc3ccccc3-n3cccn3)nc(N3CCC(N)CC3)nc12 [Compound 34] | 100 to 1000 nM | > 1000 nM | 100 to 1000 nM | 1000 to 10000 nM | C (C=less than 20 fold) | < 100 nM |  |  |  |  |  |  |  | B (B=less than 200 fold, but greater than 20 fold) | C (C=less than 20 fold)
8 | Cc1ccc(CNc2nc(N3CCC(N)CC3)nc3c(C(C)C)cnn23)cc1-n1cccn1 [Compound 65] | > 1000 nM | > 1000 nM | 100 to 1000 nM | 1000 to 10000 nM | C (C=less than 20 fold) | < 100 nM |  |  |  |  |  |  |  | B (B=less than 200 fold, but greater than 20 fold) | B (B=less than 200 fold, but greater than 20 fold)
9 | CC(C)c1cnn2c(NCc3ccc(Cl)c(-n4cccn4)c3)nc(N3CCC(N)CC3)nc12 [Compound 67] | 100 to 1000 nM | > 1000 nM | 100 to 1000 nM | 1000 to 10000 nM | C (C=less than 20 fold) | < 100 nM |  |  |  |  |  |  |  | B (B=less than 200 fold, but greater than 20 fold) | C (C=less than 20 fold)
10 | CC(C)c1cnn2c(NCc3ccccc3-n3cccn3)nc(-c3ccc(C4CCNCC4)cc3)nc12 [Compound 168] | 100 to 1000 nM | > 1000 nM | 100 to 1000 nM |  | B (B=less than 200 fold, but greater than 20 fold) | < 100 nM |  |  |  |  |  |  |  | A (A=greater than 200 fold) | B (B=less than 200 fold, but greater than 20 fold)
11 | Cc1cccc(-c2cc(C(C)(C)O)n(C)n2)c1CNc1nc(N2CCC(N)CC2)nc2c(C(C)C)cnn12 [Compound 259] |  |  |  |  |  |  | > 1000 nM | > 1000 nM | > 1000 nM | A (A=greater than 200 fold) | A (A=greater than 200 fold) | A (A=greater than 200 fold) | < 100 nM |  | 

Second part, led by results:

Row | IC50 (CDK2/Cyclin A; [1]) | IC50 (CDK1/Cyclin B; [2]) | IC50 (CDK5/p25; [3]) | IC50 (H460) | CDK5/CDK7: Selectivity of CDK7 inhibition over CDK5 inhibition (CDK7/Cyclin H/MNAT1; CDK7 over CDK5) | IC50 (CDK7/Cyclin H/MNAT1; [4]) | IC50 (CDK2/Cyclin A; read-out: CDK2 enzymatic activity (IC50 activity range)) | IC50 (CDK1/Cyclin B; read-out: CDK1 enzymatic activity (IC50 activity range)) | IC50 (CDK5/p25; read-out: CDK5 enzymatic activity (IC50 activity range)) | CDK1/CDK7: Selectivity of CDK7 inhibition over CDK1 inhibition (CDK7/Cyclin H/MNAT1; CDK1/CDK7) | CDK2/CDK7: Selectivity of CDK7 inhibition over CDK2 inhibition (CDK7/Cyclin H/MNAT1; CDK2/CDK7) | CDK5/CDK7: Selectivity of CDK7 inhibition over CDK5 inhibition (CDK7/Cyclin H/MNAT1; CDK5/CDK7) | IC50 (CDK7/Cyclin H/MNAT1; read-out: CDK7 enzymatic activity (IC50 activity range)) | SMILES | CDK1/CDK7: Selectivity of CDK7 inhibition over CDK1 inhibition (CDK7/Cyclin H/MNAT1; CDK7 over CDK1) | CDK2/CDK7: Selectivity of CDK7 inhibition over CDK2 inhibition (CDK7/Cyclin H/MNAT1; CDK7 over CDK2)
12 | 100 to 1000 nM | 100 to 1000 nM | < 100 nM | < 1000 nM | C (C=less than 20 fold) | < 100 nM |  |  |  |  |  |  |  | CC(C)c1cnn2c(NCc3cccc4cnn(C)c34)nc(N3CCC(N)CC3)nc12 [Compound 10] | B (B=less than 200 fold, but greater than 20 fold) | B (B=less than 200 fold, but greater than 20 fold)
13 | 100 to 1000 nM | 100 to 1000 nM | < 100 nM | < 1000 nM | C (C=less than 20 fold) | < 100 nM |  |  |  |  |  |  |  | NC1CCN(c2nc(NCc3ccccc3-n3cccn3)n3ncc(C4CCCC4)c3n2)CC1 [Compound 12] | B (B=less than 200 fold, but greater than 20 fold) | B (B=less than 200 fold, but greater than 20 fold)
14 | 100 to 1000 nM | 100 to 1000 nM | < 100 nM | < 1000 nM | C (C=less than 20 fold) | < 100 nM |  |  |  |  |  |  |  | CC(C)c1cnn2c(NCc3cccc4ncn(C)c34)nc(N3CCC(N)CC3)nc12 [Compound 16] | B (B=less than 200 fold, but greater than 20 fold) | B (B=less than 200 fold, but greater than 20 fold)
15 |  |  |  | < 1000 nM |  |  |  |  |  |  |  |  |  | CC(C)c1cnn2c(NCc3ccccc3Br)nc(N3CCC(N)CC3)nc12 [Compound 22] |  | 
16 |  |  |  | < 1000 nM |  |  |  |  |  |  |  |  |  | CC(C)c1cnn2c(NCc3ccccc3-n3cccn3)nc(C3CCNCC3)nc12 [Compound 23] |  | 
17 | < 100 nM | 100 to 1000 nM | < 100 nM | < 1000 nM | C (C=less than 20 fold) | < 100 nM |  |  |  |  |  |  |  | CC(C)c1cnn2c(NCc3ccccc3-n3cccn3)nc([C@H]3CC[C@H](N)CC3)nc12 [Compound 25] | B (B=less than 200 fold, but greater than 20 fold) | C (C=less than 20 fold)
18 | 100 to 1000 nM | 100 to 1000 nM | < 100 nM | < 1000 nM | C (C=less than 20 fold) | < 100 nM |  |  |  |  |  |  |  | Cc1nc2c(CNc3nc(N4CCC(N)CC4)nc4c(C(C)C)cnn34)cccc2o1 [Compound 33] | B (B=less than 200 fold, but greater than 20 fold) | B (B=less than 200 fold, but greater than 20 fold)
19 | < 100 nM | 100 to 1000 nM | < 100 nM | < 1000 nM | C (C=less than 20 fold) | < 100 nM |  |  |  |  |  |  |  | CC(C)c1cnn2c(NCc3ccccc3-c3cc4cccc(NC(=O)N(C)C)c4[nH]3)nc(N3CCC(N)CC3)nc12 [Compound 149] | B (B=less than 200 fold, but greater than 20 fold) | B (B=less than 200 fold, but greater than 20 fold)
